Assay results published in patent US5874457A, “Imidazolylalkyl derivatives of imidazo[1,5-a]indol-3-one” (Pharmacia & Upjohn S.p.A., priority 1994, dated 1999).

Assays:
[1] = molecular target: T1, 5-HT3 (Rattus norvegicus, UniProt P35563); assay: Inhibition of the binding of ^3 H-BRL 43694 (5-HT3 binding affinity, rat entorhinal cortex); parameters: from tissue; host or cells: rat entorhinal cortex (brain cortical membranes)
T1 sequence (P35563 24-483): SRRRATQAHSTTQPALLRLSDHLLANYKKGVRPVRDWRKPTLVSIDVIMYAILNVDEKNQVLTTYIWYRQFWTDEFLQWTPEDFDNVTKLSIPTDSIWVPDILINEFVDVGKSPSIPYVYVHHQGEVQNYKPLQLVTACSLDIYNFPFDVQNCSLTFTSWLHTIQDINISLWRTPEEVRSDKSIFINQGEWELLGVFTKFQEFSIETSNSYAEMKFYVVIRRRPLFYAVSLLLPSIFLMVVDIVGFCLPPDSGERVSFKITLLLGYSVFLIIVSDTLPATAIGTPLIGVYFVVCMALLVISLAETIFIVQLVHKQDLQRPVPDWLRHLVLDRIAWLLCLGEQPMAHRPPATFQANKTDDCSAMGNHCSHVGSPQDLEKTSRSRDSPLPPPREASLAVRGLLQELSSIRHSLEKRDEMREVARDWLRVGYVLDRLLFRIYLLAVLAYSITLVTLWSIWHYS
Description: The following Table II summarized the data obtained in this in-vitro test for the representative compound of the invention coded as FCE 28572.
5-HT3 binding affinity for rat entorhinal

[2] = molecular target: T1, 5-HT3; assay: Inhibition of the von Bezold-Jarisch chemoreflex evoked by 5-HT in the anesthetized rat (5HT3 antagonist activity in vivo); parameters: evoked by 5-HT in the anesthetized rat; from tissue; host or cells: living anesthetized rat (in vivo; native receptors, by own knowledge on cardiac vagal afferents); settings: 5-HT 30 μg/kg i.v.
Description: Pharmacol. 326, 36-44 (1984).
The following Table I reports in-vivo 5HT3 antagonist activity data obtained in this test for the representative compound of the invention 2-(5-methyl-1H-imidazol-4-yl)methyl-1,2-dihydro-imidazo[1,5-a]indol-3-one (internal code […]).
elicited by 5-HT (30 μg/kg i.v.) by FCE 28572
in the anesthetized rat. Values are mean ± in […]

IC50 [1]: 23 nM
% inhibition of the von Bezold-Jarisch reflex elicited by 5-HT ([2]; compound 100 μg/kg i.v., mean ± S.E.M. from 6 animals): 86.7%
ED50 ([2]; iv, limits (10.4-31.7), read-out: ED50 (limits), inhibition of the von Bezold-Jarisch reflex elicited by 5-HT): 0.0161 mg/kg
SMILES: Cc1[nH]cnc1CN1Cc2cc3ccccc3n2C1=O [FCE 28572, 2-(5-methyl-1H-imidazol-4-yl)methyl-1,2-dihydro-imidazo[1,5-a]indol-3-one]
